Measured values reported in ChEMBL document CHEMBL4819151, “Synthesis, optimization, in vitro and in vivo study of bicyclic substituted amine as MenA inhibitor” (Bioorg Med Chem Lett, 2021).
≈ marks a conversion by molar mass, not a printed value. Calls of active or inactive are those of the source. The calls are words filed in the database; no cut-off is given here.

How the values were obtained:
[1] = system: Mycobacterium tuberculosis; test: Antitubercular activity against Mycobacterium tuberculosis H37Ra assessed as bacterial growth inhibition in the presence of 7H10/OADC medium; assay type: functional
Staphylococcus aureus [2] = test: Antibacterial activity against methicillin-resistant Staphylococcus aureus USA300 assessed as bacterial growth inhibition measured by two-fold serial microdilution method; assay type: functional
Staphylococcus aureus [3] = test: Bactericidal activity against methicillin-resistant Staphylococcus aureus USA300 assessed as eradication in population size at 8 to 16 ug/ml measured after 2 hrs by time kill assay curve based analysis; assay type: functional, organism-based; conditions: dose 8-16 µg/ml
Staphylococcus aureus [4] = test: Antibacterial activity against methicillin-resistant Staphylococcus aureus USA300 infected in Caenorhabditis elegans N2 worms assessed as worms killing at 25 ug/ml measured after 4 days; assay type: functional; conditions: dose 25 µg/ml; time 4 day
Staphylococcus aureus [5] = test: Bactericidal activity against methicillin-resistant Staphylococcus aureus USA300 at 16 ug/ml measured for 48 hrs in presence of menaquinone, MK4 by time kill assay curve based analysis; assay type: functional; conditions: dose 16 µg/ml
Staphylococcus aureus [6] = test: Bactericidal activity against methicillin-resistant Staphylococcus aureus USA300 assessed as log10 reduction in microbial growth at 8 ug/ml in presence of menaquinone, MK4 measured after 8 hrs by time kill assay curve based analysis; assay type: functional; conditions: dose 8 µg/ml
Staphylococcus aureus [7] = test: Antibacterial activity against methicillin-resistant Staphylococcus aureus USA300 assessed as bacterial growth inhibition at 8 ug/ml incubated for 24 hrs in presence 100 ug/ml of menaquinone, MK4 measured by two-fold serial microdilution method; assay type: functional, organism-based; conditions: dose 8.0 µg/ml
Staphylococcus aureus [8] = test: Antibacterial activity against methicillin-resistant Staphylococcus aureus USA300 infected in Caenorhabditis elegans N2 worms assessed as worms killing at 5 ug/ml measured after 4 days; assay type: functional; conditions: dose 5 µg/ml; time 4 day
Staphylococcus aureus [9] = test: Antibacterial activity against methicillin-resistant Staphylococcus aureus USA300 assessed as bacterial growth inhibition at 8 ug/ml measured by two-fold serial microdilution method; assay type: functional, organism-based; conditions: dose 8.0 µg/ml
Staphylococcus aureus [10] = test: Antibacterial activity against methicillin-resistant Staphylococcus aureus USA300 infected in Caenorhabditis elegans N2 worms assessed as worms survival at 5 ug/ml measured after 4 days; assay type: functional; conditions: dose 5 µg/ml; time 4 day
Staphylococcus aureus [11] = test: Antibacterial activity against methicillin-resistant Staphylococcus aureus USA300 assessed as bacterial growth inhibition in CAMH medium measured by two-fold serial microdilution method; assay type: functional
Staphylococcus aureus [12] = test: Antibacterial activity against methicillin-resistant Staphylococcus aureus USA300 infected in Caenorhabditis elegans N2 worms assessed as worms survival at 25 ug/ml measured after 4 days; assay type: functional; conditions: dose 25 µg/ml; time 4 day
[13] = target: T1, 1,4-dihydroxy-2-naphthoate octaprenyltransferase (Mycobacterium tuberculosis, UniProt P9WIP3); test: Inhibition of Mycobacterium tuberculosis MenA
T1 sequence (P9WIP3 whole entry): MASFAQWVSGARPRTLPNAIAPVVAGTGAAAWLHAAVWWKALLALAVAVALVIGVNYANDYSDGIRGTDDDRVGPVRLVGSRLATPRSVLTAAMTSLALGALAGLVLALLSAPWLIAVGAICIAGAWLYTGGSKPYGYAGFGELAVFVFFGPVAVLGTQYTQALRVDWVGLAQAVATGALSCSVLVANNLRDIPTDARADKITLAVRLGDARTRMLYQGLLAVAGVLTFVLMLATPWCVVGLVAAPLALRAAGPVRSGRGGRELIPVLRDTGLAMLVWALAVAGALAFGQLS

[14] = target: T1, 1,4-dihydroxy-2-naphthoate octaprenyltransferase; test: Competitive inhibition of Mycobacterium tuberculosis H37Rv membrane MenA using DHNA as a substrate in presence of [1-3H]FPP or [1-3H]GGPP; assay type: cell membranes
[15] = system: Mycobacterium tuberculosis; test: Antitubercular activity against Mycobacterium tuberculosis H37Rv; assay type: functional
[16] = Toxicity in Balb/cJ mouse assessed as effect on lung inflammation at 10 mg/kg, INH administered for 4 days and measured on day 5 by H and E staining microscopic analysis; assay type: organism-based; conditions: in vivo, inhaled_or_intranasal, 120 h, time 5 day
[17] = Toxicity in Balb/cJ mouse assessed as drug tolerability at 200 ug INH administered for 4 days; conditions: in vivo, inhaled_or_intranasal, 96 h, at 200 µg, time 4 day
[18] = Toxicity in Balb/cJ mouse assessed as body weight loss at 200 ug INH administered for 4 days and observed on day 5; conditions: in vivo, inhaled_or_intranasal, 120 h, dose 200 µg, time 5 day
[19] = Drug uptake in Balb/cJ mouse lungs at 200 ug INH administered for 4 days and measured on day 5 by reverse-phase HPLC analysis; assay type: ADME, tissue-based, Lung; conditions: in vivo, 120 h, at 200 µg, time 5 day
[20] = Toxicity in Balb/cJ mouse assessed as effect on lung damage at 10 mg/kg, INH administered for 4 days and measured on day 5 by H and E staining microscopic analysis; assay type: organism-based; conditions: in vivo, inhaled_or_intranasal, 120 h, time 5 day

`CC(C)=CCC/C(C)=C/CNC1CCCC1` gave an MIC [1] of 64 µg/mL and an MIC (Staphylococcus aureus [2]) of 128 µg/mL (≈ 578 µM).

In the case of `CC(C)=CCC/C(C)=C/CC/C(C)=C/CNCCc1ccc(F)cc1`, the Activity (Staphylococcus aureus [3]) is reported as “Active”, the MIC [1] is reported as 4 µg/mL and the Activity (Staphylococcus aureus [4]) is reported as 100%. The Activity (Staphylococcus aureus [5]) was 100%, the Activity (Staphylococcus aureus [6]) was 3.5 log10CFU/ml and the Activity (Staphylococcus aureus [7]) was “inactive”. The Activity (Staphylococcus aureus [8]) was 83%, the Activity (Staphylococcus aureus [9]) was “Active” and the MIC (Staphylococcus aureus [2]) was 8 µg/mL (≈ 23.3 µM).

Compound `CC(C)=CCC/C(C)=C/CC/C(C)=C/CNC1CCCC1` has an MIC (Staphylococcus aureus [2]) of 16 µg/mL (≈ 55.3 µM).

With `CC(C)=CCC/C(C)=C/CNC1CC1` the MIC [1] was > 128 µg/mL and the MIC (Staphylococcus aureus [2]) was > 128 µg/mL.

In the case of `COc1ccc2ccc(OCCCOCC=C(C)C)cc2c1`, the MIC (Staphylococcus aureus [2]) is reported as > 256 µg/mL.

Compound `CC(C)=CCC/C(C)=C/CC/C(C)=C/CNC1CC1` has an MIC (Staphylococcus aureus [2]) of 16 µg/mL (≈ 61.2 µM).

`Fc1ccc(CCNCCCOc2ccc3ccc(OCCCNCCc4ccc(F)cc4)cc3c2)cc1` showed an Activity (Staphylococcus aureus [10]) of 71%, an Activity (Staphylococcus aureus [11]) of 3 µg/mL and an Activity (Staphylococcus aureus [12]) of 78%.

In the case of `O=[N+]([O-])c1ccc(OCCCCCCCCNCCc2ccc(F)cc2)cc1`, the MIC [1] is reported as 16 µg/mL and the MIC (Staphylococcus aureus [2]) is reported as 8 µg/mL (≈ 20.6 µM).

Work on `CC(C)=CCC/C(C)=C/CC/C(C)=C/CN1CCCCC1` yielded an MIC [1] of 8 µg/mL and an MIC (Staphylococcus aureus [2]) of 32 µg/mL (≈ 111 µM).

With `COc1ccc2ccc(OCCCCCCCCOCC=C(C)C)cc2c1` the MIC (Staphylococcus aureus [2]) was > 256 µg/mL.

`COc1ccc2ccc(OCCCCCCCCN3CCCCC3)cc2c1` gave an Activity (Staphylococcus aureus [11]) of 16 µg/mL and an IC50 [13] of 13.5 µM.

In the case of `CC(C)=CCC/C(C)=C/CC/C(C)=C/COC(=O)C(N)CC(=O)O` (stereo not given), the IC50 [14] is reported as 5.33 µM and the MIC [15] is reported as 12.5 µg/mL (≈ 37 µM).

In the case of `C=CCN(C)CCCCCCCCOc1ccc2ccc(OC)cc2c1`, the Activity (Staphylococcus aureus [11]) is reported as 16 µg/mL, the Activity [16] is reported as “Non-Toxic” and the Activity [17] is reported as 100%. The Activity [18] was “Non-Toxic”, the Drug uptake [19] was 32.4% and the Activity [20] was “Non-Toxic”. The IC50 [13] was 16.9 µM and the Activity (Staphylococcus aureus [2]) was “Active”.

`CC(C)=CCC/C(C)=C/CNCCc1ccc(F)cc1` gave an MIC (Staphylococcus aureus [2]) of 32 µg/mL (≈ 116 µM).

In the case of `CC(=O)NC[C@H]1CN(c2ccc(N3CCOCC3)c(F)c2)C(=O)O1` [LINEZOLID], the MIC (Staphylococcus aureus [2]) is reported as 1 µg/mL (≈ 2.96 µM).

Compound `CC(C)=CCC/C(C)=C/CN1CCCCC1` has an MIC (Staphylococcus aureus [2]) of 64 µg/mL (≈ 289 µM).

In the case of `Fc1ccc(CNCCCCCCCCNCc2ccc(F)cc2)cc1`, the MIC (Staphylococcus aureus [2]) is reported as 64 µg/mL (≈ 178 µM).

With `C=CCN(C)C/C=C(\C)CC/C=C(\C)CCC=C(C)C` the IC50 [14] was 20 µM and the MIC [15] was 6.1 µg/mL (≈ 22.1 µM).

Compound `O=[N+]([O-])c1ccc(OCCCCCCCCOc2ccc([N+](=O)[O-])cc2)cc1` has an MIC (Staphylococcus aureus [2]) of 64 µg/mL (≈ 165 µM).

`Fc1ccc(CCNCCCCCCCCNCCc2ccc(F)cc2)cc1` gave an MIC [1] of 32 µg/mL and an MIC (Staphylococcus aureus [2]) of 16 µg/mL (≈ 41.2 µM).
